Where “and” joins values, the source holds several entries; their conditions need not be identical. Equal values may be shown once. Inconclusive results and toxic doses are left out. Rule for the calls: active = survival T/C of 150% or more; inactive = T/C below 125% in these data.
Tested on: CD2F1 mice, L1210 leukemia ip, survival T/C
Assay: NCI In Vivo Anticancer Drug Screen. Data for tumor model L1210 Leukemia (intraperitoneal) in CD2F1 (CDF1) mice
Settings: higher = longer survival
Procedure, shortened: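 Ratio T/C, where T is the treated-group value and C the vehicle-dosed control value, from mice implanted with a transplantable tumor.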

[1] = endpoint: mean survival time, dose: 100.0 mg/kg/injection, schedule: Q01DX001 (ip), vehicle: saline with Tween-80
[2] = endpoint: mean survival time, dose: 200.0 mg/kg/injection, schedule: Q01DX001 (ip), vehicle: saline with Tween-80
[3] = endpoint: mean survival time, dose: 400.0 mg/kg/injection, schedule: Q01DX001 (ip), vehicle: saline with Tween-80
[4] = endpoint: mean survival time, dose: 100.0 mg/kg/injection, schedule: Q04DX003 (ip), vehicle: saline with Tween-80
[5] = endpoint: mean survival time, dose: 100.0 mg/kg/injection, schedule: Q01DX009 (ip), vehicle: saline with Tween-80
[6] = endpoint: mean survival time, dose: 200.0 mg/kg/injection, schedule: Q01DX009 (ip), vehicle: saline with Tween-80

Measured: T/C

COc1nc(NC2OC(CO)C(O)C(O)C2O)c(I)c(=O)n1C (stereo unspecified)
inactive: endpoint: median survival time, dose: 12.5 mg/kg/injection, schedule: Q01DX005 (ip), vehicle: saline with Tween-80 100 % of control | endpoint: median survival time, dose: 25.0 mg/kg/injection, schedule: Q01DX005 (ip), vehicle: saline with Tween-80 100 % of control | endpoint: median survival time, dose: 50.0 mg/kg/injection, schedule: Q01DX005 (ip), vehicle: saline with Tween-80 100 % of control | endpoint: median survival time, dose: 100.0 mg/kg/injection, schedule: Q01DX005 (ip), vehicle: saline with Tween-80 100 % of control | endpoint: median survival time, dose: 200.0 mg/kg/injection, schedule: Q01DX005 (ip), vehicle: saline with Tween-80 101 % of control

N#CSCN1C(=O)C=CC1=O
inactive: endpoint: mean survival time, dose: 1.25 mg/kg/injection, schedule: Q01DX009 (ip), vehicle: saline with Tween-80 93 % of control | endpoint: mean survival time, dose: 2.5 mg/kg/injection, schedule: Q01DX009 (ip), vehicle: saline with Tween-80 89 % of control | endpoint: mean survival time, dose: 5.0 mg/kg/injection, schedule: Q01DX009 (ip), vehicle: saline with Tween-80 93 % of control

Cc1cc(N2C(=O)CSC2=S)ccc1Br
inactive: [1] 95 % of control | [2] 97 % of control | [3] 100 % of control

O=S1(=O)C2CCC(C2)C1Cl (stereo unspecified)
inactive: [4] 88 % of control

Nc1nc(N)c(CCCOc2ccc([N+](=O)[O-])cc2Cl)c(N)n1
inactive: endpoint: mean survival time, dose: 100.0 mg/kg/injection, schedule: Q04DX002 (ip), vehicle: Klucel (hydroxypropylcellulose) (HPC) 90 % of control | endpoint: mean survival time, dose: 200.0 mg/kg/injection, schedule: Q04DX002 (ip), vehicle: Klucel (hydroxypropylcellulose) (HPC) 94 % of control | endpoint: mean survival time, dose: 400.0 mg/kg/injection, schedule: Q04DX002 (ip), vehicle: Klucel (hydroxypropylcellulose) (HPC) 90 % of control

OC1COC(C(/C=N/Nc2ccccc2)=N/Nc2ccccc2)C1O (stereo unspecified)
inactive: endpoint: median survival time, dose: 25.0 mg/kg/injection, schedule: Q01DX005 (ip), vehicle: distilled water + Tween-80 97 % of control | endpoint: median survival time, dose: 50.0 mg/kg/injection, schedule: Q01DX005 (ip), vehicle: distilled water + Tween-80 94 % of control | endpoint: median survival time, dose: 100.0 mg/kg/injection, schedule: Q01DX005 (ip), vehicle: distilled water + Tween-80 87 % of control | endpoint: median survival time, dose: 200.0 mg/kg/injection, schedule: Q01DX005 (ip), vehicle: distilled water + Tween-80 92 % of control | endpoint: median survival time, dose: 400.0 mg/kg/injection, schedule: Q01DX005 (ip), vehicle: distilled water + Tween-80 92 % of control

CCCN(CCC)CCCCCCO
inactive: endpoint: mean survival time, dose: 50.0 mg/kg/injection, schedule: Q01DX009 (ip), vehicle: saline with Tween-80 98 % of control | [5] 98 % of control | [6] 97 % of control

CCCCCCCCCCCCCCN1CCCN(CCCCCCCCCCCCCC)CC1
inactive: endpoint: mean survival time, dose: 50.0 mg/kg/injection, schedule: Q04DX003 (ip), vehicle: saline with Tween-80 93 % of control | [1] 94 % of control | [5] 96 % of control and 101 % of control | endpoint: mean survival time, dose: 100.0 mg/kg/injection, schedule: Q04DX002 (ip), vehicle: saline with Tween-80 96 % of control | [4] 93 % of control and 101 % of control | [2] 94 % of control | [6] 98 % of control and 104 % of control | endpoint: mean survival time, dose: 200.0 mg/kg/injection, schedule: Q04DX002 (ip), vehicle: saline with Tween-80 93 % of control and 97 % of control | endpoint: mean survival time, dose: 200.0 mg/kg/injection, schedule: Q04DX003 (ip), vehicle: saline with Tween-80 98 % of control and 100 % of control | [3] 101 % of control | endpoint: mean survival time, dose: 400.0 mg/kg/injection, schedule: Q01DX009 (ip), vehicle: saline with Tween-80 93 % of control and 95 % of control | endpoint: mean survival time, dose: 400.0 mg/kg/injection, schedule: Q04DX002 (ip), vehicle: saline with Tween-80 93 % of control and 96 % of control | endpoint: mean survival time, dose: 400.0 mg/kg/injection, schedule: Q04DX003 (ip), vehicle: saline with Tween-80 98 % of control

— PubChem BioAssay AID256 (DTP/NCI, 2004)
